For eleven compounds, MIC results are on record in patent US11666658B2, “Rifamycin analogs and antibody-drug conjugates thereof” (Regeneron Pharmaceuticals, Inc., priority 2018, dated 2023).

The structures appear in SMILES notation. Converted amounts (≈) assume the structure as drawn.

Experiment [1] deals with intracellular S. aureus NRS384 in THP-1 macrophages. Nature of the experiment: Intracellular killing assay 2 (rifamycin analogs, S. aureus in THP-1 macrophages). In kind it is cell-based, Staphylococcus aureus. The following applies: Staphylococcus aureus, NRS384, 2 h; lowest concentration giving intracellular S. aureus below limit of detection (50 cfu/mL) in THP-1 macrophages; median of at least two experiments; read-out: S. aureus Intracellular killing MIC. As to the method:
THP-1 monocytic cell line was grown in media (RMPI+10% FBS+1% Penicillin/Streptomycin), then seeded at a density of 1e5 cells/well in a 96 well plate and differentiated into macrophages for three days prior to infection using 200 nM PMA. An overnight culture of S. aureus NRS384 was grown in RPMI, washed twice with PBS and resuspended at 1e7 cfu/mL in PBS. THP-1 were washed with warm media (RMPI without FBS) to remove the Penicillin/Streptomycin and then infected with the S. aureus suspension at a multiplicity of infection of 10:1 (S. aureus: macrophages). Plates were spun at 300×g for 5 minutes to synchronize adhesion of the bacteria, then incubated at 37° C. for 2 hours. Free-floating bacteria were removed by washing 2× with warm media and remaining extracellular S. aureus were killed by addition of media containing gentamicin (50 ug/mL). […] The compounds were added in media containing 50 µg/mL gentamicin to prevent extracellular growth of S. aureus. After 2 hours, plates were washed 2× with warm RPMI without FBS, and 100 ul of THP-1 lysis buffer (0.1% Triton in PBS) was added to each well. S. aureus survival was enumerated by colony forming units through serial dilution and plating onto TSA.
The intracellular MIC value indicated represents the median value of at least two independent experiments, unless indicated otherwise.

Another experiment relates to S. aureus NRS384. Nature of the experiment: Broth minimum inhibitory concentration (MIC) assay 2. In kind it is cell-based, Staphylococcus aureus. As to conditions: Staphylococcus aureus; S. aureus NRS384 in TSB, 24 hours at 37° C., OD600; median of at least two independent experiments; read-out: S. aureus Broth MIC. As for the experimental part:
To test the potency of rifamycin analogs of the disclosure in vitro, a broth growth inhibition assay was developed. For the assay, S. aureus NRS384 was grown in Tryptic Soy Broth (TSB) overnight, then sub-cultured 1:50 in fresh TSB and grown for an additional two hours. The culture was then pelleted via centrifugation and washed twice in PBS. The culture was then diluted to 1×10^6 cfu/mL in TSB and 100 μL of the suspension was added per well to a 2 mL dilution plate in triplicate. […] The plates were sealed and incubated at 37° C. with shaking for 24 hours, then 150 μL of each sample was added to 96 well microtiter plates and the OD600 nm was read on a Spectramax i3 Minimax 300.
The broth MIC experiments were assessed in at least two independent experiments and the median value is captured below unless indicated otherwise.

With `CO[C@H]1/C=C/O[C@@]2(C)Oc3c(C)c(O)c4c(=O)c(c5oc6cc(OC7CCN(C)CC7)ccc6nc-5c4c3C2=O)NC(=O)/C(C)=C\C=C\[C@H](C)[C@H](O)[C@@H](C)[C@@H](O)[C@@H](C)[C@H](OC(C)=O)[C@@H]1C` [Analog 17], the MIC came to 0.2 µM (≈ 0.18 µg/mL) in experiment [1] and 0.0156 µM (≈ 0.014 µg/mL) with S. aureus NRS384.
For `CO[C@H]1/C=C/O[C@@]2(C)Oc3c(C)c(O)c4c(=O)c(c5oc6cc(OCCN(C)C)cc(O)c6nc-5c4c3C2=O)NC(=O)/C(C)=C\C=C\[C@H](C)[C@H](O)[C@@H](C)[C@@H](O)[C@@H](C)[C@H](OC(C)=O)[C@@H]1C` [Analog 29], in that order: 0.04 µM (≈ 0.0355 µg/mL) and 0.00391 µM (≈ 0.00347 µg/mL).
The matching figures for `CO[C@H]1/C=C/O[C@@]2(C)Oc3c(C)c(O)c4c(=O)c(c5oc6cc(OCC7CCN(C)C7)cc(O)c6nc-5c4c3C2=O)NC(=O)/C(C)=C\C=C\[C@H](C)[C@H](O)[C@@H](C)[C@@H](O)[C@@H](C)[C@H](OC(C)=O)[C@@H]1C` (stereo partly shown) [Analog 29a]: 0.04 µM (≈ 0.0366 µg/mL) and 0.00391 µM (≈ 0.00357 µg/mL).
`CO[C@H]1/C=C/O[C@@]2(C)Oc3c(C)c(O)c4c(=O)c(c5oc6cc(OCC7CCN(C)CC7)cc(O)c6nc-5c4c3C2=O)NC(=O)/C(C)=C\C=C\[C@H](C)[C@H](O)[C@@H](C)[C@@H](O)[C@@H](C)[C@H](OC(C)=O)[C@@H]1C` [Analog 29b]: the MIC in experiment [1] was 0.04 µM (≈ 0.0371 µg/mL); in the experiment with S. aureus NRS384, 0.00391 µM (≈ 0.00363 µg/mL).
In the case of `CO[C@H]1/C=C/O[C@@]2(C)Oc3c(C)c(O)c4c(=O)c(c5oc6cc(OCCN7CCCC7)cc(O)c6nc-5c4c3C2=O)NC(=O)/C(C)=C\C=C\[C@H](C)[C@H](O)[C@@H](C)[C@@H](O)[C@@H](C)[C@H](OC(C)=O)[C@@H]1C` [Analog 29c], the values for the MIC (in experiment [1]; in the experiment on S. aureus NRS384) were 0.04 µM (≈ 0.0366 µg/mL) and 0.00391 µM (≈ 0.00357 µg/mL), respectively.
Regarding `CO[C@H]1/C=C/O[C@@]2(C)Oc3c(C)c(O)c4c(=O)c(c5oc6cc(OCCN7CC8CCC7C8)cc(O)c6nc-5c4c3C2=O)NC(=O)/C(C)=C\C=C\[C@H](C)[C@H](O)[C@@H](C)[C@@H](O)[C@@H](C)[C@H](OC(C)=O)[C@@H]1C` [Analog 29d], the MIC is 0.04 µM (≈ 0.0376 µg/mL) in experiment [1] and 0.00391 µM (≈ 0.00368 µg/mL) with S. aureus NRS384.
On to `CO[C@H]1/C=C/O[C@@]2(C)Oc3c(C)c(O)c4c(=O)c(c5oc6cc(OCCN7CCN(C)CC7)cc(O)c6nc-5c4c3C2=O)NC(=O)/C(C)=C\C=C\[C@H](C)[C@H](O)[C@@H](C)[C@@H](O)[C@@H](C)[C@H](OC(C)=O)[C@@H]1C` [Analog 29e], for which the results for the MIC (in experiment [1]; in the experiment with S. aureus NRS384) were 0.04 µM (≈ 0.0377 µg/mL) and 0.0156 µM (≈ 0.0147 µg/mL), respectively.
As for `CO[C@H]1/C=C/O[C@@]2(C)Oc3c(C)c(O)c4c(=O)c(c5oc6cc(OCCOCCN(C)C)cc(O)c6nc-5c4c3C2=O)NC(=O)/C(C)=C\C=C\[C@H](C)[C@H](O)[C@@H](C)[C@@H](O)[C@@H](C)[C@H](OC(C)=O)[C@@H]1C` [Analog 29f], the results for the MIC (in experiment [1]; with S. aureus NRS384) were 0.2 µM (≈ 0.186 µg/mL) and 0.0156 µM (≈ 0.0145 µg/mL), respectively.
Regarding `CO[C@H]1/C=C/O[C@@]2(C)Oc3c(C)c(O)c4c(=O)c(c5oc6cc(OCCN7CCOCC7)cc(O)c6nc-5c4c3C2=O)NC(=O)/C(C)=C\C=C\[C@H](C)[C@H](O)[C@@H](C)[C@@H](O)[C@@H](C)[C@H](OC(C)=O)[C@@H]1C` [Analog 29g], the results for the MIC (in experiment [1]; in the experiment on S. aureus NRS384) were 0.2 µM (≈ 0.186 µg/mL) and 0.00391 µM (≈ 0.00364 µg/mL), respectively.
Regarding `CO[C@H]1/C=C/O[C@@]2(C)Oc3c(C)c(O)c4c(=O)c(c5oc6cc(OCCN(C)c7ccccn7)cc(O)c6nc-5c4c3C2=O)NC(=O)/C(C)=C\C=C\[C@H](C)[C@H](O)[C@@H](C)[C@@H](O)[C@@H](C)[C@H](OC(C)=O)[C@@H]1C` [Analog 29h], the results for the MIC (in experiment [1]; in the experiment with S. aureus NRS384) were 1 µM (≈ 0.951 µg/mL) and 0.0625 µM (≈ 0.0594 µg/mL), respectively.
`CO[C@H]1/C=C/O[C@@]2(C)Oc3c(C)c(O)c4c(=O)c(c5oc6cc(OCCNC(C)=O)cc(O)c6nc-5c4c3C2=O)NC(=O)/C(C)=C\C=C\[C@H](C)[C@H](O)[C@@H](C)[C@@H](O)[C@@H](C)[C@H](OC(C)=O)[C@@H]1C` [Analog 29i]: the MIC worked out at 0.2 µM (≈ 0.18 µg/mL) in experiment [1] and 0.00244 µM (≈ 0.0022 µg/mL) in the experiment on S. aureus NRS384.
